Data reported in article PMC8343220, “The selectivity of α‐adrenoceptor agonists for the human α1A, α1B, and α1D‐adrenoceptors” (Pharmacology Research & Perspectives, 2021).

Assays:
[1] = tested on: parental CHO cell line without any transfected receptors; test: Intracellular calcium mobilization, parent CHO cells without transfected receptors; format: cell-based, Chinese hamster; settings: Cricetulus griseus; CHO cells without transfected receptors; response at maximum concentration used (c2), as % of ionomycin (10μM) response; mean ± s.e.m.; read-out: Intracellular calcium release % ionomycin
[2] = target: T1, human α1B‐adrenoceptor (Homo sapiens, UniProt P35368); test: ^3H‐prazosin whole‐cell radioligand binding, CHO‐α1B cells; settings: CHO‐α1B cells
T1 construct: expressed in transfected cells; host or cells: CHO-K1
T1 sequence (P35368 1-520): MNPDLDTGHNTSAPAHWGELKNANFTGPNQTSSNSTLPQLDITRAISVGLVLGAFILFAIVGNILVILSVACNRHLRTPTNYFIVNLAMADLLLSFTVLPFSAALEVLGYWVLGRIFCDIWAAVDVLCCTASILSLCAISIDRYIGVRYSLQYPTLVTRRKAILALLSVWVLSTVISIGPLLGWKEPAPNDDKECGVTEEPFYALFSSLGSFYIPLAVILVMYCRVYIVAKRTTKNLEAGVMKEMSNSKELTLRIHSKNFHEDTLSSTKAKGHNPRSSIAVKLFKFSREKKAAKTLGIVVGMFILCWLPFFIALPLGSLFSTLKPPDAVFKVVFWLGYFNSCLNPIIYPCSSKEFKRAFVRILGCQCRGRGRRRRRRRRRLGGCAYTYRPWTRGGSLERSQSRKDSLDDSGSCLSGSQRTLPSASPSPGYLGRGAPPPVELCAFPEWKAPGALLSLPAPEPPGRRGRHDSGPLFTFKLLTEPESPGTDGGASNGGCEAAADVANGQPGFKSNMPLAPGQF

[3] = target: T1, human α1B‐adrenoceptor; test: ^3H‐cAMP accumulation, CHO‐α1B cells; format: cell-based; settings: CHO‐α1B cells
[4] = target: T1, human α1B‐adrenoceptor; test: ^3H‐cAMP accumulation in the presence of 10 μM forskolin, CHO‐α1B cells; format: cell-based; settings: CHO‐α1B cells; in presence of forskolin; read-out: cAMP accumulation (in presence of forskolin) Log EC50 (converted)
[5] = target: T2, human α1D‐adrenoceptor (full length) (Homo sapiens, UniProt P25100); test: Intracellular free calcium mobilization, CHO‐α1D cells; format: cell-based
T2 construct: human α1D‐adrenoceptor (full length) were used; expressed in transfected cells; host or cells: CHO-K1
T2 sequence (P25100 1-572): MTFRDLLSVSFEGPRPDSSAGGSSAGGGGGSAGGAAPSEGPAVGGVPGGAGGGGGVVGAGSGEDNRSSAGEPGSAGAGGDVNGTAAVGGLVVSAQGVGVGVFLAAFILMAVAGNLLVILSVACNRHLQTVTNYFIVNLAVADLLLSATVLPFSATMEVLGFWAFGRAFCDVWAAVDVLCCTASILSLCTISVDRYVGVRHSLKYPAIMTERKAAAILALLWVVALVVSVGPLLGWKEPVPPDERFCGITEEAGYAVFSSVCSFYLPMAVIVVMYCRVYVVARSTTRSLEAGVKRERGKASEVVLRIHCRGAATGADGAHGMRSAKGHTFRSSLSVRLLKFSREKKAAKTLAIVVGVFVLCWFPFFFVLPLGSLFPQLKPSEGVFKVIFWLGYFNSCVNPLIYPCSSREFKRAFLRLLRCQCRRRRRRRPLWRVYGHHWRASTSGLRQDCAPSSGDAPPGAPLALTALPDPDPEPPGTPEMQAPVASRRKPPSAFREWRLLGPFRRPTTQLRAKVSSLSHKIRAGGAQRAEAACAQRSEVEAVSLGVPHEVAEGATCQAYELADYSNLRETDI

[6] = target: T3, human α1A‐adrenoceptor (Homo sapiens, UniProt P35348); test: ^3H‐cAMP accumulation, CHO‐α1A cells; format: cell-based; settings: CHO‐α1A cells; % of 10 µM forskolin response
T3 construct: expressed in transfected cells; host or cells: CHO-K1
T3 sequence (P35348 1-466): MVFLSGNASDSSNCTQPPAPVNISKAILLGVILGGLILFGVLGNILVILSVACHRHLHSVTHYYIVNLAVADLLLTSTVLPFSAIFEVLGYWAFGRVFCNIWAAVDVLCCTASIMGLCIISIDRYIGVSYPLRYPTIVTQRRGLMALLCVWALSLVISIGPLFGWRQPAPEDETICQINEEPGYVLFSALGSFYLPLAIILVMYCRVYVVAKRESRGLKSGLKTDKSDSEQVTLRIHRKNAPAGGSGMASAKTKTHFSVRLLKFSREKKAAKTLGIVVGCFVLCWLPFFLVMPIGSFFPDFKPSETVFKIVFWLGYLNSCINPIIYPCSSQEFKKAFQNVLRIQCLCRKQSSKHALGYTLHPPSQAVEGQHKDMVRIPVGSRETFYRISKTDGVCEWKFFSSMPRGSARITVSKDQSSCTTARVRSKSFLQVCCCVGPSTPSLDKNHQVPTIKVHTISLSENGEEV

[7] = tested on: parental CHO cell line without any transfected receptors; test: Forskolin‐stimulated cAMP accumulation, parent CHO cells without transfected receptors; format: cell-based, Chinese hamster; settings: CHO cells without transfected receptors; in presence of forskolin
[8] = target: T1, human α1B‐adrenoceptor; test: ERK1/2‐phosphorylation (Surefire Alphascreen), CHO‐α1B cells; format: cell-based
[9] = target: T3, human α1A‐adrenoceptor; test: Intracellular free calcium mobilization, CHO‐α1A cells; format: cell-based
[10] = target: T2, human α1D‐adrenoceptor (full length); test: ^3H‐prazosin whole‐cell radioligand binding, CHO‐α1D cells; settings: CHO‐α1D cells
[11] = target: T1, human α1B‐adrenoceptor; test: Intracellular free calcium mobilization, CHO‐α1B cells; format: cell-based
[12] = tested on: parental CHO cell line without any transfected receptors; test: ERK1/2‐phosphorylation, parent CHO cells without transfected receptors; format: cell-based, Chinese hamster; settings: CHO cells without transfected receptors; maximal response as % of PDBu (10μM) response; mean ± s.e.m.
[13] = target: T2, human α1D‐adrenoceptor (full length); test: ERK1/2‐phosphorylation (Surefire Alphascreen), CHO‐α1D cells; format: cell-based
[14] = target: T3, human α1A‐adrenoceptor; test: ERK1/2‐phosphorylation (Surefire Alphascreen), CHO‐α1A cells; format: cell-based

Clc1cccc(Cl)c1N=C1NCCN1 [Clonidine]
Emax [1]: 1.6 ± 1%
Kd ([2]; Log KD α1B, ^3H‐prazosin whole cell binding, given as log KD (negative), mean ± SEM): 7410 nM
Kd ([2]; Log KD, ^3H‐prazosin binding, whole‐cell binding (from Table 1), given as log KD (negative numbers)): 7410 nM
cAMP accumulation % forskolin ([3]; % forskolin maximum response): 7.5 ± 0.8%
EC50 ([3]; read-out: cAMP accumulation Log EC50 (converted)): 251 nM
EC50 [4]: 44.7 nM
Intracellular calcium release % Ionomycin at 100 µM [5]: 8.0 ± 0.5%
cAMP accumulation % forskolin [6]: 33.8 ± 3.2%
cAMP accumulation (in presence of forskolin) Log EC50 [7]: No response
ERK1/2‐phosphorylation % PDBu [8]: 60.6 ± 7.6%
EC50 ([8]; ERK1/2‐phosphorylation Log EC50, CHO‐α1B cells, for bi‐phasic responses the initial stimulatory part): 89.1 nM
Intracellular calcium release % ionomycin [9]: 51.6 ± 1.2%
Kd ([10]; 3H‐prazosin binding Log KD, whole‐cell binding (from Table 1), log values given negative): 2570 nM
Kd ([10]; Log KD α1D, ^3H‐prazosin whole cell binding, given as log KD (negative), mean ± SEM, 'early plateau' = specific binding not fully inhibited): 2570 nM
Intracellular calcium release % ionomycin [11]: 45.4 ± 2.1%
EC50 ([11]; Intracellular calcium release Log EC50, CHO‐α1B cells, given as log EC50 (negative numbers)): 17 nM
ERK1/2-phosphorylation % PDBu [12]: No response
ERK1/2‐phosphorylation % PDBu at 100 µM [13]: 6.1 ± 1.3%
ERK1/2‐phosphorylation % PDBu [14]: 85.7 ± 4.7%
